{"source": "patent US12433875B2", "about": "“(R)-4-(1-(6-(4-(trifluoromethyl)benzyl)-6-azaspiro[2.5]octane-5-carboxamido)-cyclopropyl) benzoic acid or its salt also in polymorphic form a for use in the prevention of heterotopic ossification” (ROTTAPHARM BIOTECH S.R.L., priority 2019, dated 2025)", "key": {"[1]": {"system": "Sprague Dawley male rats (AIA model)", "assay": "Adjuvant Induced Arthritis (AIA) in rats, histology of pathological bone apposition", "type": "in vivo, rat", "settings": "10 mg/kg orally once a day for 15 days, FIG. 10", "excerpt": "Adjuvant Induced Arthritis (AIA) in rats is a widely studied and accepted animal model of inflammatory arthritis driven by Tcells. In experimental autoimmune diseases, CFA mediated activation of the innate immune compartment is important not only by regulating the early induction phase, but also by providing a surplus of effector and regulator cells in the late phase. Also in this model it was possible to appreciate a relevant pathological apposition of new bone. This paradigm was used as a third model to further confirm the effect of the compound of the invention as an effective inhibitor of pathological heterotopic ossification.\nSprague Dawley male rats (Charles River) were immunized by intradermal injection at the base of the tail with 150 μl of complete Freund's adjuvant (CFA) containing 10 mg/ml of heat killed Mycobacterium tuberculosis (Chondrex code 7027) or with incomplete Freund's adjuvant (IFA) (sham n=10). Ten days after immunization arthritis developed in all animals, but not in the sham-group; edema and clinical scores were assessed and the animals were then randomized and assigned to treatment groups (n=9-12) as follows: vehicle, the compound of the invention 10 mg/kg or 30 mg/kg. The compound of the invention was administered orally once a day for 15 days. […]"}, "[2]": {"system": "PBMC's from healthy volunteers (Th17 IL-17F memory cells)", "assay": "Human T-helper (Th) cell polarization, flow cytometry", "type": "cell-based", "settings": "100 nM; rIL-2 and rIL-21 5 ng/ml, anti-CD3 and anti-CD28 1.5 ng/ml, PGE2 30 nM, 48 hour; FIG. 12", "description": "FIG. 12a is the spydergram illustrating the preferential inhibitory effect of the form A of the sodium salt of (R)-4-(1-(6-(4-(trifluoromethyl)benzyl)-6-azaspiro[2.5]octane-5-carboxamido)cyclopropyl)benzoic acid on Th17 polarization towards Th17 IL-17F memory cells induced by a stimulation with rIL-2 and rIL-21 (both at 5 ng/ml) in combination with anti-CD3 and anti-CD28 (both at 1.5 ng/ml) co-stimulated with PGE2 (30 nM) over a 48 hour. Stimulated cells were normalized to 100%.\nFIG. 12b represents the percent of Th17 IL-17F memory cell stimulation (mean±sem) of cells taken by individual donors vs. their baseline levels in the absence or in the presence of 100 nM form A of the sodium salt of (R)-4-(1-(6-(4-(trifluoromethyl)benzyl)-6-azaspiro[2.5]octane-5-carboxamido)cyclopropyl)benzoic acid.\nIn this model the ability of the Form A of the sodium salt of (R)-4-(1-(6-(4-(trifluoromethyl)benzyl)-6-azaspiro[2.5]octane-5-carboxamido)cyclopropyl)benzoic acid to interacts with the immunological features able to influence pathological bone formation was studied. Specifically, the effect of the Form A of the sodium salt of (R)-4-(1-(6-(4-(trifluoromethyl)benzyl)-6-azaspiro[2.5]octane-5-carboxamido)cyclopropyl)benzoic acid on the Th-cell polarization in human Tcells stimulated by inflammatory agents was studied. […]"}}, "data": [{"smiles": "O=C([O-])c1ccc(C2(NC(=O)[C@H]3CC4(CCN3Cc3ccc(C(F)(F)F)cc3)CC4)CC2)cc1.[Na+]", "note": "[Form A, sodium (R)-4-(1-(6-(4-(trifluoromethyl)benzyl)-6-azaspiro[2.5]octane-5-carboxamido)cyclopropyl)benzoate]", "values": [{"measurement": "pathological bone apposition (histology)", "setting": "[1]", "result": "completely abrogated the pathological bone apposition in almost all animals"}, {"measurement": "polarization of Th17 cells towards IL-17F producing population (Th17 IL-17F memory cells)", "setting": "[2]", "result": "reduce significantly the polarization of Th17 cells towards a population capable to produce IL-17F"}]}]}
